#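 Where inhibition never reached the appropriate level, the endpoint shown equals the highest concentration tested. Otherwise, values were interpolated linearly from a five-concentration, 48-hour dose response in 96-well plates. Here, GI50 denotes the concentration required for 50% inhibition of growth. TGI: total growth inhibition.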
# Key:
# Test in all cases: NCI tumour cell line growth inhibition, 48 h
# 786-0 renal = tested on: 786-0 renal
# A498 renal = tested on: A498 renal
# ACHN renal = tested on: ACHN renal
# BT-549 breast = tested on: BT-549 breast
# CAKI-1 renal = tested on: CAKI-1 renal
# CCRF-CEM leukemia = tested on: CCRF-CEM leukemia
# DU-145 prostate = tested on: DU-145 prostate
# EKVX NSCLC = tested on: EKVX NSCLC
# HCC-2998 colon = tested on: HCC-2998 colon
# HCT-116 colon = tested on: HCT-116 colon
# HCT-15 colon = tested on: HCT-15 colon
# HL-60(TB) leukemia = tested on: HL-60(TB) leukemia
# HOP-92 NSCLC = tested on: HOP-92 NSCLC
# HS 578T breast = tested on: HS 578T breast
# HT29 colon = tested on: HT29 colon
# IGROV1 ovarian = tested on: IGROV1 ovarian
# K-562 leukemia = tested on: K-562 leukemia
# KM12 colon = tested on: KM12 colon
# LOX IMVI melanoma = tested on: LOX IMVI melanoma
# M14 melanoma = tested on: M14 melanoma
# MALME-3M melanoma = tested on: MALME-3M melanoma
# MCF7 breast = tested on: MCF7 breast
# MDA-MB-231 breast = tested on: MDA-MB-231 breast
# MDA-MB-435 = tested on: MDA-MB-435
# NCI-H23 lung = tested on: NCI-H23 lung
# NCI-H522 lung = tested on: NCI-H522 lung
# NCI/ADR-RES ovarian = tested on: NCI/ADR-RES ovarian
# OVCAR-3 ovarian = tested on: OVCAR-3 ovarian
# OVCAR-4 ovarian = tested on: OVCAR-4 ovarian
# OVCAR-5 ovarian = tested on: OVCAR-5 ovarian
# PC-3 prostate = tested on: PC-3 prostate
# RPMI-8226 leukemia = tested on: RPMI-8226 leukemia
# RXF 393 renal = tested on: RXF 393 renal
# SF-295 CNS = tested on: SF-295 CNS
# SF-539 CNS = tested on: SF-539 CNS
# SK-MEL-2 melanoma = tested on: SK-MEL-2 melanoma
# SK-MEL-28 melanoma = tested on: SK-MEL-28 melanoma
# SK-MEL-5 melanoma = tested on: SK-MEL-5 melanoma
# SNB-19 CNS = tested on: SNB-19 CNS
# SNB-75 CNS = tested on: SNB-75 CNS
# SR leukemia = tested on: SR leukemia
# SW-620 colon = tested on: SW-620 colon
# T-47D breast = tested on: T-47D breast
# TK-10 renal = tested on: TK-10 renal
# UACC-257 melanoma = tested on: UACC-257 melanoma
# UACC-62 melanoma = tested on: UACC-62 melanoma
# UO-31 renal = tested on: UO-31 renal
# A549 NSCLC = tested on: A549 NSCLC
# COLO 205 colon = tested on: COLO 205 colon
# HOP-62 NSCLC = tested on: HOP-62 NSCLC
# MOLT-4 leukemia = tested on: MOLT-4 leukemia
# NCI-H226 lung = tested on: NCI-H226 lung
# NCI-H460 lung = tested on: NCI-H460 lung
# OVCAR-8 ovarian = tested on: OVCAR-8 ovarian
# SF-268 CNS = tested on: SF-268 CNS
# SK-OV-3 ovarian = tested on: SK-OV-3 ovarian
# SN12C renal = tested on: SN12C renal
# U251 CNS = tested on: U251 CNS
smiles,measurement,setting,value
COc1ccc(NC(=O)Nc2ccccc2CNc2nc(Nc3ccc(OCCN4CCCC4)cc3)ncc2Cl)cc1,GI50,786-0 renal,0.882 µM
same,TGI,786-0 renal,1.64 µM
same,GI50,A498 renal,0.963 µM
same,TGI,A498 renal,3.27 µM
same,GI50,ACHN renal,0.862 µM
same,TGI,ACHN renal,1.55 µM
same,GI50,BT-549 breast,0.788 µM
same,TGI,BT-549 breast,1.54 µM
same,GI50,CAKI-1 renal,0.867 µM
same,TGI,CAKI-1 renal,1.61 µM
same,GI50,CCRF-CEM leukemia,1.68 µM
same,TGI,CCRF-CEM leukemia,> 50 µM
same,GI50,DU-145 prostate,1.24 µM
same,TGI,DU-145 prostate,3.42 µM
same,GI50,EKVX NSCLC,2.65 µM
same,TGI,EKVX NSCLC,9.45 µM
same,GI50,HCC-2998 colon,1.01 µM
same,TGI,HCC-2998 colon,2.18 µM
same,GI50,HCT-116 colon,0.902 µM
same,TGI,HCT-116 colon,1.75 µM
same,GI50,HCT-15 colon,0.878 µM
same,TGI,HCT-15 colon,1.76 µM
same,GI50,HL-60(TB) leukemia,1.15 µM
same,TGI,HL-60(TB) leukemia,2.59 µM
same,GI50,HOP-92 NSCLC,0.877 µM
same,TGI,HOP-92 NSCLC,2.37 µM
same,GI50,HS 578T breast,1.01 µM
same,TGI,HS 578T breast,2.38 µM
same,GI50,HT29 colon,1.1 µM
same,TGI,HT29 colon,2.6 µM
same,GI50,IGROV1 ovarian,0.894 µM
same,TGI,IGROV1 ovarian,1.66 µM
same,GI50,K-562 leukemia,1.63 µM
same,TGI,K-562 leukemia,> 50 µM
same,GI50,KM12 colon,0.947 µM
same,TGI,KM12 colon,1.77 µM
same,GI50,LOX IMVI melanoma,0.894 µM
same,TGI,LOX IMVI melanoma,1.64 µM
same,GI50,M14 melanoma,0.833 µM
same,TGI,M14 melanoma,1.64 µM
same,GI50,MALME-3M melanoma,0.845 µM
same,TGI,MALME-3M melanoma,1.58 µM
same,GI50,MCF7 breast,0.926 µM
same,TGI,MCF7 breast,1.78 µM
same,GI50,MDA-MB-231 breast,0.953 µM
same,TGI,MDA-MB-231 breast,1.74 µM
same,GI50,MDA-MB-435,0.874 µM
same,TGI,MDA-MB-435,1.61 µM
same,GI50,NCI-H23 lung,2.01 µM
same,TGI,NCI-H23 lung,8.72 µM
same,GI50,NCI-H522 lung,1.04 µM
same,TGI,NCI-H522 lung,2.31 µM
same,GI50,NCI/ADR-RES ovarian,1.1 µM
same,TGI,NCI/ADR-RES ovarian,2.64 µM
same,GI50,OVCAR-3 ovarian,0.923 µM
same,TGI,OVCAR-3 ovarian,1.73 µM
same,GI50,OVCAR-4 ovarian,0.879 µM
same,TGI,OVCAR-4 ovarian,1.69 µM
same,GI50,OVCAR-5 ovarian,1.02 µM
same,TGI,OVCAR-5 ovarian,2.08 µM
same,GI50,PC-3 prostate,1.2 µM
same,TGI,PC-3 prostate,2.96 µM
same,GI50,RPMI-8226 leukemia,1.73 µM
same,TGI,RPMI-8226 leukemia,> 50 µM
same,GI50,RXF 393 renal,0.828 µM
same,TGI,RXF 393 renal,1.64 µM
same,GI50,SF-295 CNS,0.853 µM
same,TGI,SF-295 CNS,1.6 µM
same,GI50,SF-539 CNS,0.825 µM
same,TGI,SF-539 CNS,1.54 µM
same,GI50,SK-MEL-2 melanoma,1.12 µM
same,TGI,SK-MEL-2 melanoma,2.58 µM
same,GI50,SK-MEL-28 melanoma,0.87 µM
same,TGI,SK-MEL-28 melanoma,1.62 µM
same,GI50,SK-MEL-5 melanoma,0.849 µM
same,TGI,SK-MEL-5 melanoma,1.55 µM
same,GI50,SNB-19 CNS,2.14 µM
same,TGI,SNB-19 CNS,9.2 µM
same,GI50,SNB-75 CNS,0.755 µM
same,TGI,SNB-75 CNS,1.45 µM
same,GI50,SR leukemia,1.54 µM
same,TGI,SR leukemia,> 50 µM
same,GI50,SW-620 colon,1.05 µM
same,TGI,SW-620 colon,2.5 µM
same,GI50,T-47D breast,1.02 µM
same,TGI,T-47D breast,2.54 µM
same,GI50,TK-10 renal,0.99 µM
same,TGI,TK-10 renal,1.98 µM
same,GI50,UACC-257 melanoma,0.926 µM
same,TGI,UACC-257 melanoma,1.73 µM
same,GI50,UACC-62 melanoma,0.869 µM
same,TGI,UACC-62 melanoma,1.63 µM
same,GI50,UO-31 renal,0.763 µM
same,TGI,UO-31 renal,1.44 µM
COc1cccc(/C(COc2ccc3c(c2)oc(=O)c2ccccc23)=N\O)c1,GI50,786-0 renal,16.9 µM
same,TGI,786-0 renal,58 µM
same,GI50,A498 renal,30.5 µM
same,TGI,A498 renal,81.8 µM
same,GI50,A549 NSCLC,16.9 µM
same,TGI,A549 NSCLC,51.1 µM
same,GI50,ACHN renal,26.7 µM
same,TGI,ACHN renal,> 100 µM
same,GI50,BT-549 breast,23 µM
same,TGI,BT-549 breast,57.9 µM
same,GI50,CAKI-1 renal,26.1 µM
same,TGI,CAKI-1 renal,77.2 µM
same,GI50,CCRF-CEM leukemia,23.2 µM
same,TGI,CCRF-CEM leukemia,> 100 µM
same,GI50,COLO 205 colon,25.8 µM
same,TGI,COLO 205 colon,75.9 µM
same,GI50,DU-145 prostate,16.9 µM
same,TGI,DU-145 prostate,60.7 µM
same,GI50,EKVX NSCLC,12.5 µM
same,TGI,EKVX NSCLC,66.2 µM
same,GI50,HCC-2998 colon,44.1 µM
same,TGI,HCC-2998 colon,> 100 µM
same,GI50,HCT-116 colon,13.2 µM
same,TGI,HCT-116 colon,33.4 µM
same,GI50,HCT-15 colon,37.2 µM
same,TGI,HCT-15 colon,> 100 µM
same,GI50,HOP-62 NSCLC,37 µM
same,TGI,HOP-62 NSCLC,> 100 µM
same,GI50,HOP-92 NSCLC,71.8 µM
same,TGI,HOP-92 NSCLC,> 100 µM
same,GI50,HS 578T breast,67.1 µM
same,TGI,HS 578T breast,> 100 µM
same,GI50,HT29 colon,29.6 µM
same,TGI,HT29 colon,> 100 µM
same,GI50,IGROV1 ovarian,28.4 µM
same,TGI,IGROV1 ovarian,58.5 µM
same,GI50,K-562 leukemia,13.6 µM
same,TGI,K-562 leukemia,85.3 µM
same,GI50,KM12 colon,15.1 µM
same,TGI,KM12 colon,39.1 µM
same,GI50,M14 melanoma,32 µM
same,TGI,M14 melanoma,> 100 µM
same,GI50,MALME-3M melanoma,33 µM
same,TGI,MALME-3M melanoma,90.1 µM
same,GI50,MCF7 breast,> 100 µM
same,TGI,MCF7 breast,> 100 µM
same,GI50,MDA-MB-231 breast,22.2 µM
same,TGI,MDA-MB-231 breast,64.5 µM
same,GI50,MDA-MB-435,19.9 µM
same,TGI,MDA-MB-435,52.8 µM
same,GI50,MOLT-4 leukemia,6.63 µM
same,TGI,MOLT-4 leukemia,35 µM
same,GI50,NCI-H226 lung,27.7 µM
same,TGI,NCI-H226 lung,62 µM
same,GI50,NCI-H23 lung,33.6 µM
same,TGI,NCI-H23 lung,> 100 µM
same,GI50,NCI-H460 lung,> 100 µM
same,TGI,NCI-H460 lung,> 100 µM
same,GI50,NCI-H522 lung,20.6 µM
same,TGI,NCI-H522 lung,61.3 µM
same,GI50,NCI/ADR-RES ovarian,20 µM
same,TGI,NCI/ADR-RES ovarian,> 100 µM
same,GI50,OVCAR-3 ovarian,45 µM
same,TGI,OVCAR-3 ovarian,> 100 µM
same,GI50,OVCAR-5 ovarian,> 100 µM
same,TGI,OVCAR-5 ovarian,> 100 µM
same,GI50,OVCAR-8 ovarian,20.8 µM
same,TGI,OVCAR-8 ovarian,54 µM
same,GI50,PC-3 prostate,29.5 µM
same,TGI,PC-3 prostate,> 100 µM
same,GI50,RPMI-8226 leukemia,30.3 µM
same,TGI,RPMI-8226 leukemia,> 100 µM
same,GI50,RXF 393 renal,18.4 µM
same,TGI,RXF 393 renal,38.3 µM
same,GI50,SF-268 CNS,> 100 µM
same,TGI,SF-268 CNS,> 100 µM
same,GI50,SF-295 CNS,33.3 µM
same,TGI,SF-295 CNS,> 100 µM
same,GI50,SF-539 CNS,18.3 µM
same,TGI,SF-539 CNS,44.3 µM
same,GI50,SK-MEL-2 melanoma,28.6 µM
same,TGI,SK-MEL-2 melanoma,69 µM
same,GI50,SK-MEL-28 melanoma,84.7 µM
same,TGI,SK-MEL-28 melanoma,> 100 µM
same,GI50,SK-MEL-5 melanoma,17.1 µM
same,TGI,SK-MEL-5 melanoma,35.7 µM
same,GI50,SK-OV-3 ovarian,> 100 µM
same,TGI,SK-OV-3 ovarian,> 100 µM
same,GI50,SN12C renal,32.8 µM
same,TGI,SN12C renal,96 µM
same,GI50,SNB-19 CNS,52 µM
same,TGI,SNB-19 CNS,> 100 µM
same,GI50,SNB-75 CNS,25.7 µM
same,TGI,SNB-75 CNS,76.7 µM
same,GI50,SR leukemia,10.3 µM
same,TGI,SR leukemia,> 100 µM
same,GI50,SW-620 colon,42.5 µM
same,TGI,SW-620 colon,> 100 µM
same,GI50,T-47D breast,29.4 µM
same,TGI,T-47D breast,> 100 µM
same,GI50,TK-10 renal,33.7 µM
same,TGI,TK-10 renal,> 100 µM
same,GI50,U251 CNS,34.4 µM
same,TGI,U251 CNS,> 100 µM
same,GI50,UACC-257 melanoma,25 µM
same,TGI,UACC-257 melanoma,61.1 µM
same,GI50,UACC-62 melanoma,24.8 µM
same,TGI,UACC-62 melanoma,82.1 µM
same,GI50,UO-31 renal,17.3 µM
same,TGI,UO-31 renal,34.3 µM

# Source: PubChem BioAssay (NCI)
